Results: patent US20250179059A1 (The Regents of the University of California, priority 2021, published 2025)

What was measured:
[1] = biological target: T1, human BRD4 bromodomain II (Homo sapiens, UniProt O60885); assay: Bromodomain binding assay (AlphaScreen), BRD4 BDII; details: AlphaScreen assay, Table C2; read-out: BRD4 BDII IC50
T1 construct: human BRD4 bromodomain II [based on Genbank NM_058243, residues 349-460]; host or cells: E. coli
Procedure, shortened: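 AlphaScreen competition with biotinylated H4 peptide (aa 1-21, K5/K8/K12/K16Ac), using nickel-chelate acceptor and streptavidin donor beads. Targets were His6-BRD4 BDI (44-170) or BDII (349-460), with a 30 min compound preincubation over a 10-point 3-fold series. IC50 was fitted from percentage peptide binding.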

[2] = system: human SKM-1 acute myeloid leukemia cells; assay: SKM-1 antiproliferation cell-based assay (ATPlite); details: Homo sapiens, SKM-1, 96 h, SKM-1 antiproliferation assay, 4 days, Table C2
Procedure, shortened: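 Log-phase cells in RPMI 1640/15% FBS were seeded at 34722 cells/mL and exposed for 4 days to nine-concentration DMSO serial dilutions in triplicate. Viability was read as ATP luminescence (ATPlite 1step), and IC50 values came from variable-slope non-linear regression.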

Row | Structure (SMILES) | IC50 [1] [nM] | GI50 [2] [nM]
1 | O=C1NCCCN1c1ccc(-c2cccc(-c3ccnc(N4CCNCC4)c3)c2O)cc1F [Example 277, 1-(3-fluoro-2′-hydroxy-3′-(2-(piperazin-1-yl)pyridin-4-yl)-[1,1′-biphenyl]-4-yl)tetrahydropyrimidin-2(1H)-one] | > 100 | 300 to 3000
2 | O=C1NCCCN1c1ccc(-c2cc(F)cc(-c3ccnc(N4CCNCC4)c3)c2O)cc1F [Example 278, 1-(3,5′-difluoro-2′-hydroxy-3′-(2-(piperazin-1-yl)pyridin-4-yl)-[1,1′-biphenyl]-4-yl)tetrahydropyrimidin-2(1H)-one] | 10 to 100 | 300 to 3000
3 | CC(=O)Nc1ccc(-c2cccc(-c3ccnc(N4CC(C)NC(C)C4)c3)c2O)cc1F (stereo not shown) [Example 279, N-(3′-(2-(3,5-dimethylpiperazin-1-yl)pyridin-4-yl)-3-fluoro-2′-hydroxy-[1,1′-biphenyl]-4-yl)acetamide] | 1 to 10 | 300 to 3000
4 | O=C1CCCCN1c1ccc(-c2cc(F)cc(-c3ccnc(N4CCNCC4)c3)c2O)cc1F [Example 280, 1-(3,5′-difluoro-2′-hydroxy-3′-(2-(piperazin-1-yl)pyridin-4-yl)-[1,1′-biphenyl]-4-yl)piperidin-2-one] | 10 to 100 | 300 to 3000
5 | O=C1CCCCN1c1ccc(-c2cc(F)cc(-c3ccnc(N4CCNCC4)c3)c2O)cc1Cl [Example 281, 1-(3-chloro-5′-fluoro-2′-hydroxy-3′-(2-(piperazin-1-yl)pyridin-4-yl)-[1,1′-biphenyl]-4-yl)piperidin-2-one] | 10 to 100 | 300 to 3000
6 | O=C1CCCCN1c1ccc(-c2cccc(-c3ccnc(N4CCNCC4)c3)c2O)cc1Cl [Example 282, 1-(3-chloro-2′-hydroxy-3′-(2-(piperazin-1-yl)pyridin-4-yl)-[1,1′-biphenyl]-4-yl)piperidin-2-one] | 10 to 100 | 300 to 3000
7 | CC(=O)Nc1ccc(-c2cccc(-c3ccnc(N4CC5(CNC5)C4)c3)c2O)cc1Cl [Example 283, N-(3′-(2-(2,6-diazaspiro[3.3]heptan-2-yl)pyridin-4-yl)-3-chloro-2′-hydroxy-[1,1′-biphenyl]-4-yl)acetamide] | 10 to 100 | 300 to 3000
8 | O=C1CCCN1c1ccc(-c2cccc(-c3ccnc(N4CC5(CNC5)C4)c3)c2O)cc1F [Example 284, 1-(3′-(2-(2,6-diazaspiro[3.3]heptan-2-yl)pyridin-4-yl)-3-fluoro-2′-hydroxy-[1,1′-biphenyl]-4-yl)pyrrolidin-2-one] | 10 to 100 | 300 to 3000
9 | O=C1CCCN1c1ccc(-c2cc(F)cc(-c3ccnc(N4CC5(CNC5)C4)c3)c2O)cc1F [Example 285, 1-(3′-(2-(2,6-diazaspiro[3.3]heptan-2-yl)pyridin-4-yl)-3,5′-difluoro-2′-hydroxy-[1,1′-biphenyl]-4-yl)pyrrolidin-2-one] | 10 to 100 | 300 to 3000
10 | CC(=O)Nc1ccc(-c2cccc(-c3cc(N4CCNCC4)nc4[nH]ccc34)c2O)cc1F [Example 286, N-(3-fluoro-2′-hydroxy-3′-(6-(piperazin-1-yl)-1H-pyrrolo[2,3-b]pyridin-4-yl)-[1,1′-biphenyl]-4-yl)acetamide] | 10 to 100 | 300 to 3000
11 | O=C1NCCCN1c1ccc(-c2cc(F)cc(-c3ccnc(N4CCNCC4)c3)c2O)cc1Cl [Example 287, 1-(3-chloro-5′-fluoro-2′-hydroxy-3′-(2-(piperazin-1-yl)pyridin-4-yl)-[1,1′-biphenyl]-4-yl)tetrahydropyrimidin-2(1H)-one] | > 100 | 300 to 3000
12 | CN1CCCN(c2ccc(-c3cccc(-c4ccnc(N5CCNCC5)c4)c3O)cc2F)C1=O [Example 288, 1-(3-fluoro-2′-hydroxy-3′-(2-(piperazin-1-yl)pyridin-4-yl)-[1,1′-biphenyl]-4-yl)-3-methyltetrahydropyrimidin-2(1H)-one] | > 100 | ≥ 3000
13 | C[C@@H]1CN(c2cc(-c3cccc(-c4ccc(N5CCN(C)C5=O)c(F)c4)c3O)ccn2)CCN1 [Example 289, (R)-1-(3-fluoro-2′-hydroxy-3′-(2-(3-methylpiperazin-1-yl)pyridin-4-yl)-[1,1′-biphenyl]-4-yl)-3-methylimidazolidin-2-one] | 1 to 10 | 30 to 300
14 | COC(=O)c1cc(-c2ccnc(N3CCNCC3)c2)c(O)c(-c2ccc(NC(C)=O)c(F)c2)c1 [Example 290, Methyl 4′-acetamido-3′-fluoro-6-hydroxy-5-(2-(piperazin-1-yl)pyridin-4-yl)-[1,1′-biphenyl]-3-carboxylate] | > 100 | ≥ 3000
15 | CC(=O)Nc1ccc(-c2cccc(-c3cc(F)nc(N4CCNCC4)c3)c2O)cc1F [Example 291, N-(3-fluoro-3′-(2-fluoro-6-(piperazin-1-yl)pyridin-4-yl)-2′-hydroxy-[1,1′-biphenyl]-4-yl)acetamide] | 10 to 100 | 300 to 3000
16 | CN1CCN(c2ccc(-c3cccc(-c4cncc(N5CCNCC5)c4)c3O)cc2F)C1=O [Example 292, 1-(3-fluoro-2′-hydroxy-3′-(5-(piperazin-1-yl)pyridin-3-yl)-[1,1′-biphenyl]-4-yl)-3-methylimidazolidin-2-one] | 1 to 10 | 30 to 300
17 | CN1CCN(c2ccc(-c3cccc(-c4cncc(N5CCNCC5)c4)c3O)cc2Cl)C1=O [Example 293, 1-(3-chloro-2′-hydroxy-3′-(5-(piperazin-l-yl)pyridin-3-yl)-[1,1′-biphenyl]-4-yl)-3-methylimidazolidin-2-one] | 1 to 10 | 30 to 300
18 | C[C@@H]1CN(c2cc(-c3cccc(-c4ccc(N5CCN(C)C5=O)c(Cl)c4)c3O)ccn2)CCN1 [Example 294, (R)-1-(3-chloro-2′-hydroxy-3′-(2-(3-methylpiperazin-1-yl)pyridin-4-yl)-[1,1′-biphenyl]-4-yl)-3-methylimidazolidin-2-one] | 1 to 10 | 30 to 300
19 | CN1CCN(c2ccc(-c3cc(Cl)cc(-c4ccnc(N5CCNCC5)c4)c3O)cc2Cl)C1=O [Example 295, 1-(3,5′-dichloro-2′-hydroxy-3′-(2-(piperazin-1-yl)pyridin-4-yl)-[1,1′-biphenyl]-4-yl)-3-methylimidazolidin-2-one] | 1 to 10 | 30 to 300
20 | CC(=O)Nc1ccc(-c2cccc(-c3ccnc(C#CCN)c3)c2O)cc1F [Example 296, N-(3′-(2-(3-aminoprop-1-yn-1-yl)pyridin-4-yl)-3-fluoro-2′-hydroxy-[1,1′-biphenyl]-4-yl)acetamide] | 10 to 100 | 300 to 3000
21 | CC(=O)Nc1ccc(-c2cc(F)cc(-c3ccnc(N4CC5(CNC5)C4)c3)c2O)cc1Cl [Example 298, N-(3′-(2-(2,6-diazaspiro[3.3]heptan-2-yl)pyridin-4-yl)-3-chloro-5′-fluoro-2′-hydroxy-[1,1′-biphenyl]-4-yl)acetamide] | 10 to 100 | 30 to 300
22 | CNC(=O)c1cc(-c2ccnc(N3CCNCC3)c2)c(O)c(-c2ccc(NC(C)=O)c(F)c2)c1 [Example 299, 4′-Acetamido-3′-fluoro-6-hydroxy-N-methyl-5-(2-(piperazin-1-yl)pyridin-4-yl)-[1,1′-biphenyl]-3-carboxamide] | 10 to 100 | ≥ 3000
23 | CN1CCN(c2ccc(-c3cccc(-c4ccnc(N5CCC(N)CC5)c4)c3O)cc2Cl)C1=O [Example 300, 1-(3′-(2-(4-aminopiperidin-1-yl)pyridin-4-yl)-3-chloro-2′-hydroxy-[1,1′-biphenyl]-4-yl)-3-methylimidazolidin-2-one] | 1 to 10 | 30 to 300
24 | CN1CCN(c2ccc(-c3cccc(-c4ccnc(N5CCCC(N)C5)c4)c3O)cc2Cl)C1=O (stereo not shown) [Example 301, 1-(3′-(2-(3-aminopiperidin-1-yl)pyridin-4-yl)-3-chloro-2′-hydroxy-[1,1′-biphenyl]-4-yl)-3-methylimidazolidin-2-one] | 1 to 10 | 30 to 300
25 | CC(=O)Nc1ccc(-c2cccc(-c3cc(OCCN)nc(N4CCNCC4)c3)c2O)cc1F [Example 302, N-(3′-(2-(2-aminoethoxy)-6-(piperazin-l-yl)pyridin-4-yl)-3-fluoro-2′-hydroxy-[1,1′-biphenyl]-4-yl)acetamide] | 10 to 100 | 300 to 3000
26 | O=C1CCC(=O)N1c1ccc(-c2cccc(-c3ccnc(N4CCNCC4)c3)c2O)cc1F [Example 303, 1-(3-fluoro-2′-hydroxy-3′-(2-(piperazin-1-yl)pyridin-4-yl)-[1,1′-biphenyl]-4-yl)pyrrolidine-2,5-dione] | > 100 | ≥ 3000
27 | CC(=O)Nc1ccc(-c2cccc(-c3ccnc(C#CCCN)c3)c2O)cc1F [Example 304, N-(3′-(2-(4-aminobut-1-yn-1-yl)pyridin-4-yl)-3-fluoro-2′-hydroxy-[1,1′-biphenyl]-4-yl)acetamide] | 10 to 100 | 300 to 3000
28 | CN1CCN(c2ccc(-c3cccc(-c4cncc(N5CCC(N)CC5)c4)c3O)cc2Cl)C1=O [Example 305, 1-(3′-(5-(4-aminopiperidin-1-yl)pyridin-3-yl)-3-chloro-2′-hydroxy-[1,1′-biphenyl]-4-yl)-3-methylimidazolidin-2-one] | 1 to 10 | 30 to 300
29 | Cc1cc(-c2ccnc(N3CCNCC3)c2)c(O)c(-c2ccc(N3CCN(C)C3=O)c(Cl)c2)c1 [Example 306, l-(3-chloro-2′-hydroxy-5′-methyl-3′-(2-(piperazin-1-yl)pyridin-4-yl)-[1,1'-biphenyl]-4-yl)-3-methylimidazolidin-2-one] | 1 to 10 | 30 to 300
